# Assay results published in US20090075976A1, “Association between an anti-atherothrombotic and an angiotensin-converting enzyme inhibitor” (LES LABORATOIRES SERVIER, priority 2007, published 2009).
# Where a name gives a salt, the structure may show the parent alone.
# Columns and labels:
# renal fibronectin = assay: Expression of renal fibronectin in diabetic ApoE−/− mice (real-time PCR); type: in vivo; conditions: 6 weeks
# Experimental: (§1) Four groups of 9 mice deficient in apolipoprotein E (ApoE^−/−, spontaneously developing atheroma plaques in their aortas) were used in this study. At the age of 8 weeks, the mice are made diabetic by 5 intraperitoneal injections of 70 mg/kg of streptozotocin over 5 days. At the ninth week, the animals are divided into four groups: an untreated control group, a group treated with terutroban (compound A) sodium salt (1 mg/kg/day in the food), a group treated with perindopril (compound B) tert-butylamine salt (0.1 mg/kg/day in the drinking water), and a group treated with the association of terutroban (compound A) sodium salt (1 mg/kg/day in the food) and perindopril (compound B) tert-butylamine salt (0.1 mg/kg/day in the drinking water). For the expression of renal fibronectin, the mice are treated for 6 weeks and then sacrificed after anaesthesia using isoflurane. For the expression of aortic VCAM-1, the mice are treated for 13 weeks and then sacrificed. The aortas and the right-side kidneys are removed, dissected and frozen in liquid nitrogen. […] Expression of aortic VCAM-1 and expression of renal fibronectin are quantified by real-time PCR and normalised with respect to 3 reference genes: β-actin, hypoxanthine-guanine phosphoribosyl transferase (HPRT) and glyceraldehyde phosphate dehydrogenase (GAPDH). […]
# CD rats [1] = assay: Arterial pressure in the anaesthetised rat; type: in vivo; conditions: recorded 1 hour after treatment, controls 131±7 mmHg
# Experimental: After anaesthesia using pentobarbital (50 mg/kg IP), the animal is placed on a thermostatically controlled blanket. The carotid artery is exposed and a catheter is introduced in order to monitor the arterial pressure with the aid of a Gould sensor connected to AcqKnowledge software. […] Some animals are treated with terutroban (compound A) in the form of the sodium salt at a dose of 0.1 mg/kg, others with perindopril (compound B) in the form of the tert-butylamine salt at a dose of 0.3 mg/kg, and others with terutroban (compound A) in the form of the sodium salt at 0.1 mg/kg and perindopril (compound B) in the form of the tert-butylamine salt at 0.3 mg/kg.
# aortic VCAM-1 = assay: Expression of aortic VCAM-1 in diabetic ApoE−/− mice (real-time PCR); type: in vivo; conditions: 13 weeks
# Experimental: as §1, with “of” for “of renal fibronectin, the mice are treated for 6 weeks and then sacrificed after anaesthesia using isoflurane. For the expression of”, “nitrogen. The tissues are cryo-ground and total RNA is extracted using the RNeasy® micro kit (Qiagen).” for “nitrogen.”
# CD rats [2] = assay: Arterial thrombosis in the rat (FeCl3-induced, aorta); type: in vivo
# Experimental: The thrombosis technique used is that of Tanaka and co-workers (Eur. J. Pharmacol., 2008; 401, 413-18). CD rats (350-375 g) are anaesthetised using pentobarbital 50 mg/kg IP and are placed on a thermostatically controlled blanket. After laparotomy, the aorta is exposed. […] Some animals are treated with terutroban (compound A) in the form of the sodium salt at a dose of 0.1 mg/kg, others with perindopril (compound B) in the form of the tert-butylamine salt at a dose of 1 mg/kg, and others with terutroban in the form of the sodium salt (compound A) at a dose of 0.1 mg/kg and perindopril (compound B) in the form of the tert-butylamine salt at 1 mg/kg.
# [3] = test system: human E-selectin promoter; assay: E-selectin promoter activity (luciferase reporter) in TNF-α-induced HUVEC cells; type: cell-based; conditions: for Activity in cpm %/Control MEAN ± SDM: TNF-α-induced (100 U/ml); for effect on expression of the E-selectin gene: compound alone, at the concentrations tested (up to 100 μM), TNF-α
# Experimental: The study is carried out on human endothelial cells HUVEC (Human Umbilical Vein Endothelial Cells, Clonetics Co). The cells are cultured in an EBM2 medium (Endothelial Basal Medium, Clonetics Co) supplemented with 2% FCS (Fœtal Calf Serum) and EGM2 (Endothelial Growth Medium, Clonetics Co).
# An 850 bp fragment, corresponding to the human E-selectin promoter, extending from the nucleotides at positions −800 to +50 (accession no. M64485; Tamaru et al., E-selectin gene expression is induced synergistically with the coexistence of activated classic protein kinase C and signals elicited by interleukin-1β but not tumor necrosis factor-α; 1999, J. Biol. Chem, 274, 3753-3763), was amplified by PCR and sub-cloned. In a final reaction volume of 100 μl, 5 units of native Pyrococcus furiosus (Pfu) DNA polymerase (Stratagene) were placed in the presence of 1 μg of human genomic DNA (Clontech), 200 μM of dNTP (deoxynucleotide triphosphate) (Clontech) and 200 ng of primers in a medium containing the buffer specific to the enzyme. The set of primers used is as follows: […]
# The PGL3/E-selectin plasmid is transfected into HUVEC cells before the fourth passage. Transfection is carried out in plates having cells at 50% confluence, depositing Lipofectin® (Invitrogen) and 3 μg of PGL3/E-selectin plasmid in each of the wells. The Lipofectin® (6 μg/ml) is previously activated for 30 minutes in an OPTI-MEM medium (GIBCO™) and then brought into contact for 15 minutes with the plasmids previously diluted with the medium. The cells are incubated for 4 hours at 37° C. in an atmosphere containing 5% CO2 and […]. The transfection medium is withdrawn and replaced overnight by an enriched culture medium in order to stabilise the cells.
# Expression of the reporter genes is induced over 4 hours in an M199 medium without serum (GIBCO™). The cells are scratched and lysed in a lysis buffer (Dual-Luciferase® kit, Promega) and then held at −20° C.
# The induction phase is 4 hours for the HUVEC cells in the presence of 100 U/ml of Tumour Necrosis Factor-α (TNF-α). During that induction phase, there are added different concentrations of, on the one hand: • perindoprilate (0 to 100 µM), terutroban sodium salt (0 to 100 μM), or terutroban sodium salt (30 μM)+different concentrations of perindoprilate (10, 30 and 100 μM) (Table 1) and, on the other hand: • ramiprilate (0 to 100 μM), terutroban sodium salt (0 to 100 μM), or terutroban sodium salt (10 μM)+different concentrations of ramiprilate (30 and 100 μM) (Table 2).
# The E-selectin promoter activity is determined by quantification of the luciferase activity produced (Dual-Luciferase® kit, Promega). A solution of luciferin, the substrate of the firefly luciferase, is added to each well. […] The plate is incubated for 10 minutes in the dark because the luciferase activity is light-sensitive, and then a luminometer reading is started in order to quantify the photons emitted (Wallac, Perkin Elmer), the result obtained being the average cpm (counts per minute) over a period of 5 seconds.
# (§2) The activity of the E-selectin promoter is measured under control conditions and in the presence of products in the induced state.
# as §2
# VCAM-1 = conditions: diabetic atheromatous Apo E−/− mice; cited from earlier work
# [4] = 0.1 mg/kg/day in the drinking water
SMILES,expression of the renal fibronectin gene versus 100% without treatment (renal fibronectin; [4]),arterial pressure (CD rats [1]; 0.3 mg/kg),residual expression of the aortic VCAM-1 gene versus 100% without treatment (aortic VCAM-1; [4]),"weight of clot (CD rats [2]; 1 mg/kg, controls 15.6±0.7 mg)",Activity in cpm %/Control MEAN ± SDM ([3]; compound alone 30 μM),Activity in cpm %/Control MEAN ± SDM ([3]; compound alone 100 μM),effect on expression of the E-selectin gene [3],Activity in cpm %/Control MEAN ± SDM ([3]; compound alone 10 μM),expression of the renal fibronectin gene versus 100% without treatment (renal fibronectin; 1 mg/kg/day in the food),arterial pressure (CD rats [1]; 0.1 mg/kg),residual expression of the aortic VCAM-1 gene versus 100% without treatment (aortic VCAM-1; 1 mg/kg/day in the food),endothelial expression of the adhesion molecule VCAM-1 (VCAM-1),"weight of clot (CD rats [2]; 0.1 mg/kg, controls 17.1±1.3 mg)"
CCC[C@H](N[C@@H](C)C(=O)N1[C@H](C(=O)O)C[C@@H]2CCCC[C@@H]21)C(=O)OCC [perindopril],86±9.9%,120±9 mmHg,76±21%,15.2 ± 1.1 mg,,,,,,,,,
"C[C@H](N[C@@H](CCc1ccccc1)C(=O)O)C(=O)N1[C@H](C(=O)O)C[C@@H]2CCC[C@@H]21 [Compound C, active metabolite, ramiprilate]",,,,,111.1 ± 17.2%,114.6 ± 38.9%,no effect,,,,,,
"CCC[C@H](N[C@@H](C)C(=O)N1[C@H](C(=O)O)C[C@@H]2CCCC[C@@H]21)C(=O)O [Compound B, active metabolite, perindoprilate]",,,,,100.3 ± 9.2%,82.8 ± 11.5%,no effect,99.5 ± 7.8%,,,,,
"Cc1ccc2c(c1CCC(=O)O)CC[C@@H](NS(=O)(=O)c1ccc(Cl)cc1)C2 [Compound A, sodium salt, 3-[(6R)-6-[[(4-chlorophenyl)sulphonyl]amino]-2-methyl-5,6,7,8-tetrahydronaphth-1-yl]propanoic acid]",,,,,99.5 ± 9.1%,88.8 ± 8.9%,no effect,105.8 ± 7.9%,69±16%,126±7 mmHg,88±22%,significantly reduced,16.8 ± 1.3 mg
